We go through 26 compounds from US20140045823A1 (Neurocrine Biosciences, Inc., priority 2012, published 2014).

This experiment concerns the target T1, human GPR119 (Homo sapiens, UniProt Q8TDV5).
T1 construct: expression vector for human GPR119 cDNA (Acc. No. NP_848566); expressed in transfected cells; Min-6/hGPR119
T1 sequence (Q8TDV5 1-335): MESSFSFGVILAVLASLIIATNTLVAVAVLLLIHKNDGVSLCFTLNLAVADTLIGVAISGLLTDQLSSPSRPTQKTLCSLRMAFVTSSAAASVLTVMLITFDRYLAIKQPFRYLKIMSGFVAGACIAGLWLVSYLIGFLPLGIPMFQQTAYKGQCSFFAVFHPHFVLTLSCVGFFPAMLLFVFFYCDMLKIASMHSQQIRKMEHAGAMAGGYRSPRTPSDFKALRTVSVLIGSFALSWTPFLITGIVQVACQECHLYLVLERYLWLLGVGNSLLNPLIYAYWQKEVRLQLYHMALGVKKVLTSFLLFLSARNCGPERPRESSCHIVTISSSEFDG
Kind of experiment: AlphaScreen cAMP assay in MIN6 cells stably transfected with human GPR119. The experiment is classed as cell-based. As to conditions: Min-6/hGPR119 cells, 45 min at room temperature. As to the method:
The compounds of formula I according to the invention modulate the activity of the G-protein-coupled receptor GPR119. The effect of the compounds on the activation of GPR119 and on the stimulation of intracellular cAMP concentration is determined using the AlphaScreen cAMP Assay Kit (Cat. No. #6760625R) made by PerkinElmer.
MIN6 cells [Miyazaki J et al. Endocrinology. 1990 July; 127(1):126-32] are stably transfected with an expression vector for human GPR119 cDNA (Acc. No. NP_848566). Min-6/hGPR119 cells are cultured in DMEM, 10% FBS, 50 μM β-mercaptoethanol, 0.3 mg/mL Geniticin, 2 mM GlutaMAX at 37° C. 5% CO2. For the assay, the cells are seeded in Optiplates (white, 384-well, 160 W—barcoded, TC, sterile with lid, Cat. No. #6007688 (Perkin Elmer); 10000 cells/well; 50 μl). The plates covered with lids are then incubated for 24 hours at 37° C./5% CO2. After the medium is aspirated from the wells completely, 10 μl of the test compound are added, the compounds are diluted using stimulating buffer (140 mM NaCl, 3.6 mM KCl, 0.5 mM NaH2PO4, 0.5 mM MgSO4, 1.5 mM CaCl2, 10 mM Hepes, 5 mM NaHCO3; pH 7.4. 0.5 mM IBMX and 0.1% BSA, the final DMSO concentration is 1%). After 45 minutes incubation at room temperature (approx. 20° C.), the cAMP concentrations are determined using the AlphaScreen cAMP Assay Kit (Cat. No. #6760625R from PerkinElmer).
Take `CCNC(=O)c1ccc(-c2nc(C(=O)N(C3CC3)C3CCN(C(=O)OC(C)(C)C)CC3)co2)cc1` [Example 26, 4-{Cyclopropyl-[2-(4-ethylcarbamoyl-phenyl)-oxazole-4-carbonyl]-amino}-piperidine-1-carboxylic acid tert-butyl ester]: the EC50 amounted to 0.36 µM.

As for `CC(C)(C)OC(=O)N1CCC(N(C(=O)c2coc(-c3cnco3)n2)C2CC2)CC1` [Example 27, 4-[([2,5′]Bioxazolyl-4-carbonyl)-cyclopropyl-amino]-piperidine-1-carboxylic acid tert-butyl ester], it took 1.8 µM to reach a half-maximal effect (EC50).

`CC(C)(C)OC(=O)N1CCC(N(C(=O)c2coc(-c3ccc(S(C)(=O)=O)c(F)c3)n2)C2CC2)CC1` [Example 28, 4-{Cyclopropyl-[2-(3-fluoro-4-methanesulfonyl-phenyl)-oxazole-4-carbonyl]-amino}-piperidine-1-carboxylic acid tert-butyl ester] had an EC50 of 0.159 µM. Against the preceding compound, the EC50 is about 11-fold lower.

`CC(C)(C)OC(=O)N1CCC(N(C(=O)c2coc(-c3ccc(C#N)cc3)n2)C2CC2)CC1` [Example 29, 4-{[2-(4-Cyano-phenyl)-oxazole-4-carbonyl]-cyclopropyl-amino}-piperidine-1-carboxylic acid tert-butyl ester] returned an EC50 of 0.118 µM.

`CC(C)(C)OC(=O)N1CCC(N(C(=O)c2cnc(-c3ccc(S(C)(=O)=O)cc3F)o2)C2CC2)CC1` [Example 30, 4-{Cyclopropyl-[2-(2-fluoro-4-methanesulfonyl-phenyl)-oxazole-5-carbonyl]-amino}-piperidine-1-carboxylic acid tert-butyl ester] returned an EC50 of 0.176 µM. The EC50 values of the last two compounds are within 1.5-fold of each other.

As for `CC(C)(C)OC(=O)N1CCC(N(C(=O)c2cnc(-c3ccc(C#N)cc3F)o2)C2CC2)CC1` [Example 31, 4-{[2-(4-Cyano-2-fluoro-phenyl)-oxazole-5-carbonyl]-cyclopropyl-amino}-piperidine-1-carboxylic acid tert-butyl ester], the EC50 turned out to be 0.048 µM.

`CC(C)(C)OC(=O)N1CCC(N(C(=O)c2cnc(-c3ccc(C#N)c(F)c3)o2)C2CC2)CC1` [Example 32, 4-{[2-(4-Cyano-3-fluoro-phenyl)-oxazole-5-carbonyl]-cyclopropyl-amino}-piperidine-1-carboxylic acid tert-butyl ester] gave an EC50 of 0.035 µM. The EC50 values of the last two compounds are within 1.5-fold of each other.

For the compound `CC(C)(C)OC(=O)N1CCC(N(C(=O)c2cnc(-c3cnco3)o2)C2CC2)CC1` [Example 33, 4-[([2,5′]Bioxazolyl-5-carbonyl)-cyclopropyl-amino]-piperidine-1-carboxylic acid tert-butyl ester], the EC50 worked out at 0.639 µM.

The compound `CC(C)(C)OC(=O)N1CCC(N(C(=O)c2cnc(-c3ccc(S(C)(=O)=O)c(F)c3)o2)C2CC2)CC1` [Example 34, 4-{Cyclopropyl-[2-(3-fluoro-4-methanesulfonyl-phenyl)-oxazole-5-carbonyl]-amino}-piperidine-1-carboxylic acid tert-butyl ester] came in with a concentration for a half-maximal effect (EC50) of 0.086 µM. Against the preceding compound, the EC50 is about 7.4-fold lower.

In turn, `CC(C)(C)OC(=O)N1CCC(N(C(=O)c2cnc(-c3ccc(C#N)cc3)o2)C2CC2)CC1` [Example 35, 4-{[2-(4-Cyano-phenyl)-oxazole-5-carbonyl]-cyclopropyl-amino}-piperidine-1-carboxylic acid tert-butyl ester] showed an EC50 of 0.136 µM.

`CC(C)(C)OC(=O)N1CCC(N(C(=O)c2ncc(-c3ccc(S(C)(=O)=O)cc3)o2)C2CC2)CC1` [Example 36, 4-{Cyclopropyl-[5-(4-methanesulfonyl-phenyl)-oxazole-2-carbonyl]-amino}-piperidine-1-carboxylic acid tert-butyl ester] had an EC50 of 0.358 µM.

Compound `CC(C)(C)OC(=O)N1CCC(N(C(=O)c2ncc(-c3ccc(C#N)cc3)o2)C2CC2)CC1` [Example 37, 4-{[5-(4-Cyano-phenyl)-oxazole-2-carbonyl]-cyclopropyl-amino}-piperidine-1-carboxylic acid tert-butyl ester] had an EC50 of 0.142 µM.

As to `CC(C)(C)OC(=O)N1CCC(N(C(=O)c2cc(-c3ccc(C#N)cc3)on2)C2CC2)CC1` [Example 38, 4-{-[5-(4-Cyano-phenyl)-isoxazole-3-carbonyl]-cyclopropyl-amino}-piperidine-1-carboxylic acid tert-butyl ester], the midpoint of the response, the EC50, lay at 0.009 µM.

Compound `CC(C)(C)OC(=O)N1CCC(N(C(=O)c2cc(-c3ccc(C#N)cc3F)on2)C2CC2)CC1` [Example 39, 4-{[5-(4-Cyano-2-fluoro-phenyl)-isoxazole-3-carbonyl]-cyclopropyl-amino}-piperidine-1-carboxylic acid tert-butyl ester] had a 50% effective concentration (EC50) of 0.003 µM.

With `CC(C)(C)OC(=O)N1CCC(N(C(=O)c2cc(-c3ccc(C#N)c(F)c3)on2)C2CC2)CC1` [Example 40, 4-{[5-(4-Cyano-3-fluoro-phenyl)-isoxazole-3-carbonyl]-cyclopropyl-amino}-piperidine-1-carboxylic acid tert-butyl ester], a half-maximal effect (EC50) was put at 0.007 µM.

Compound `CC(C)(C)OC(=O)N1CCC(N(C(=O)c2cc(-c3ccc(C#N)cc3)no2)C2CC2)CC1` [Example 41, 4-{[3-(4-Cyano-phenyl)-isoxazole-5-carbonyl]-cyclopropyl-amino}-piperidine-1-carboxylic acid tert-butyl ester] yielded an EC50 of 0.011 µM.

In the case of `CC(C)(C)OC(=O)N1CCC(N(C(=O)c2cc(-c3ccc(C#N)cc3F)no2)C2CC2)CC1` [Example 42, 4-{[3-(4-Cyano-2-fluoro-phenyl)-isoxazole-5-carbonyl]-cyclopropyl-amino}-piperidine-1-carboxylic acid tert-butyl ester], the EC50 came to 0.002 µM.

Turning to `CC(C)(C)OC(=O)N1CCC(N(C(=O)c2cc(-c3ccc(C#N)c(F)c3)no2)C2CC2)CC1` [Example 43, 4-{[3-(4-Cyano-3-fluoro-phenyl)-isoxazole-5-carbonyl]-cyclopropyl-amino}-piperidine-1-carboxylic acid tert-butyl ester], a half-maximal effect (EC50) was put at 0.014 µM.

As to `Cc1c(C(=O)N(C2CC2)C2CCN(C(=O)OC(C)(C)C)CC2)noc1-c1ccc(C#N)cc1` [Example 44, 4-{[5-(4-Cyano-phenyl)-4-methyl-isoxazole-3-carbonyl]-cyclopropyl-amino}-piperidine-1-carboxylic acid tert-butyl ester], a half-maximal effect (EC50) was put at 0.047 µM.

Take `Cc1c(C(=O)N(C2CC2)C2CCN(C(=O)OC(C)(C)C)CC2)noc1-c1ccc(C#N)c(F)c1` [Example 45, 4-{[5-(4-Cyano-3-fluoro-phenyl)-4-methyl-isoxazole-3-carbonyl]-cyclopropyl-amino}-piperidine-1-carboxylic acid tert-butyl ester]: a half-maximal effect (EC50) was put at 0.025 µM.

Regarding `Cc1c(C(=O)N(C2CC2)C2CCN(C(=O)OC(C)(C)C)CC2)noc1-c1ccc(C#N)cc1F` [Example 46, 4-{[5-(4-Cyano-2-fluoro-phenyl)-4-methyl-isoxazole-3-carbonyl]-cyclopropyl-amino}-piperidine-1-carboxylic acid tert-butyl ester], the EC50 turned out to be 0.003 µM.

Take `CC(C)(C)OC(=O)N1CCC(N(C(=O)c2csc(-c3ccc(C#N)cc3)n2)C2CC2)CC1` [Example 47, 4-{[2-(4-Cyano-phenyl)-thiazole-4-carbonyl]-cyclopropyl-amino}-piperidine-1-carboxylic acid tert-butyl ester]: the EC50 turned out to be 1.86 µM.

`Cc1nc(-c2ccc(C#N)cc2F)sc1C(=O)N(C1CC1)C1CCN(C(=O)OC(C)(C)C)CC1` [Example 48, 4-{[2-(4-Cyano-2-fluoro-phenyl)-4-methyl-thiazole-5-carbonyl]-cyclopropyl-amino}-piperidine-1-carboxylic acid tert-butyl ester] gave an EC50 of 1.34 µM.

Take `CC(C)(C)OC(=O)N1CCC(N(C(=O)c2ncn(-c3ccc(C#N)cc3F)n2)C2CC2)CC1` [Example 49, 4-{[1-(4-Cyano-2-fluoro-phenyl)-1H-[1,2,4]triazole-3-carbonyl]-cyclopropyl-amino}-piperidine-1-carboxylic acid tert-butyl ester]: the response was half-maximal at 0.149 µM (EC50).

Compound `CC(C)(C)OC(=O)N1CCC(N(C(=O)c2ncn(-c3ccc(C#N)cc3)n2)C2CC2)CC1` [Example 50, 4-{[1-(4-Cyano-phenyl)-1H-[1,2,4]triazole-3-carbonyl]-cyclopropyl-amino}-piperidine-1-carboxylic acid tert-butyl ester] registered an EC50 of 0.505 µM. This EC50 is about 3.4-fold higher than that of the compound before.

In the case of `CC(C)OC(=O)N1CCC(N(C(=O)c2cnc(-n3ccnc3)nc2)C2CC2)CC1` [Example 51, 4-[Cyclopropyl-(2-imidazol-1-yl-pyrimidine-5-carbonyl)-amino]-piperidine-1-carboxylic acid isopropyl ester], the 50% effective concentration (EC50) was 0.14 µM.
